Measurements published in PubChem BioAssay AID248 (DTP/NCI, 2004).
“And” between values parts separate entries of the source, which are not always exact repeats. Equal values may be shown once. Inconclusive results and toxic doses are left out. Rule as the data show it: active = T/C of 150% or more; inactive = T/C below 125%.

Tested on: L1210 leukemia ip in BDF1 mice, survival T/C
Test: NCI In Vivo Anticancer Drug Screen. Data for tumor model L1210 Leukemia (intraperitoneal) in B6D2F1 (BDF1) mice
Settings: endpoint: mean survival time, higher = longer survival
How it was run: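 Tumor was transplanted into mice, which were then dosed with test compound or vehicle alone. Survival was recorded for each group, and the treated figure was expressed relative to the control figure.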

[1] = dose: 100.0 mg/kg/injection, schedule: Q01DX009 (ip), vehicle: saline with Tween-80
[2] = dose: 200.0 mg/kg/injection, schedule: Q01DX009 (ip), vehicle: saline with Tween-80
[3] = dose: 100.0 mg/kg/injection, schedule: Q04DX003 (ip), vehicle: saline
[4] = dose: 200.0 mg/kg/injection, schedule: Q04DX003 (ip), vehicle: saline
[5] = dose: 400.0 mg/kg/injection, schedule: Q04DX003 (ip), vehicle: saline
[6] = dose: 75.0 mg/kg/injection, schedule: Q01DX001 (ip), vehicle: saline
[7] = dose: 150.0 mg/kg/injection, schedule: Q01DX001 (ip), vehicle: saline
[8] = dose: 300.0 mg/kg/injection, schedule: Q01DX001 (ip), vehicle: saline
[9] = dose: 50.0 mg/kg/injection, schedule: Q01DX009 (ip), vehicle: Klucel (hydroxypropylcellulose) (HPC)
[10] = dose: 100.0 mg/kg/injection, schedule: Q01DX009 (ip), vehicle: Klucel (hydroxypropylcellulose) (HPC)
[11] = dose: 50.0 mg/kg/injection, schedule: Q04DX003 (ip), vehicle: Klucel (hydroxypropylcellulose) (HPC)
[12] = dose: 100.0 mg/kg/injection, schedule: Q04DX003 (ip), vehicle: Klucel (hydroxypropylcellulose) (HPC)
[13] = dose: 200.0 mg/kg/injection, schedule: Q01DX009 (ip), vehicle: Klucel (hydroxypropylcellulose) (HPC)
[14] = dose: 400.0 mg/kg/injection, schedule: Q01DX009 (ip), vehicle: Klucel (hydroxypropylcellulose) (HPC)

Measured: T/C

CSc1ccc(NC(=O)OCCOc2ccccc2)cc1
inactive: dose: 100.0 mg/kg/injection, schedule: Q01DX001 (ip), vehicle: saline with Tween-80 94 % of control | [1] 96 % of control and 89 % of control | dose: 100.0 mg/kg/injection, schedule: Q04DX002 (ip), vehicle: saline with Tween-80 99 % of control | dose: 100.0 mg/kg/injection, schedule: Q04DX003 (ip), vehicle: saline with Tween-80 100 % of control | dose: 200.0 mg/kg/injection, schedule: Q01DX001 (ip), vehicle: saline with Tween-80 94 % of control | [2] 97 % of control and 89 % of control | dose: 200.0 mg/kg/injection, schedule: Q04DX002 (ip), vehicle: saline with Tween-80 108 % of control | dose: 200.0 mg/kg/injection, schedule: Q04DX003 (ip), vehicle: saline with Tween-80 102 % of control | dose: 400.0 mg/kg/injection, schedule: Q01DX001 (ip), vehicle: saline with Tween-80 110 % of control | dose: 400.0 mg/kg/injection, schedule: Q01DX009 (ip), vehicle: saline with Tween-80 94 % of control and 107 % of control | dose: 400.0 mg/kg/injection, schedule: Q04DX002 (ip), vehicle: saline with Tween-80 89 % of control | dose: 400.0 mg/kg/injection, schedule: Q04DX003 (ip), vehicle: saline with Tween-80 102 % of control

O=NN(CCCl)C(=O)c1cc(Cl)cc(Cl)c1
inactive: dose: 12.5 mg/kg/injection, schedule: Q01DX009 (ip), vehicle: saline with Tween-80 115 % of control | dose: 25.0 mg/kg/injection, schedule: Q01DX009 (ip), vehicle: saline with Tween-80 117 % of control | dose: 50.0 mg/kg/injection, schedule: Q01DX009 (ip), vehicle: saline with Tween-80 111 % of control and 91 % of control | [1] 93 % of control | [2] 99 % of control

C1=CC2(OCCO2)C2CC=CC3(OCCO3)C2C1 (stereo unspecified)
inactive: dose: 100.0 mg/kg/injection, schedule: Q01DX009 (ip), vehicle: saline 113 % of control | [3] 109 % of control | [4] 98 % of control | [5] 109 % of control

COC(=O)COc1ccc2ccccc2c1Cl
inactive: dose: 100.0 mg/kg/injection, schedule: Q04DX002 (ip), vehicle: Klucel (hydroxypropylcellulose) (HPC) 86 % of control | dose: 200.0 mg/kg/injection, schedule: Q04DX002 (ip), vehicle: Klucel (hydroxypropylcellulose) (HPC) 99 % of control | dose: 400.0 mg/kg/injection, schedule: Q04DX002 (ip), vehicle: Klucel (hydroxypropylcellulose) (HPC) 96 % of control

CN1C2CCCCC1C1CCCCC2N1C
inactive: [6] 105 % of control | [7] 94 % of control | [8] 98 % of control

CC(C)CCCC(C)C1CCC2C3CC=C4CC(OP(=O)(N5CC5)N5CC5)CCC4(C)C3CCC12C (stereo unspecified)
inactive: dose: 50.0 mg/kg/injection, schedule: Q01DX001 (sc), vehicle: steriod suspending solution 102 % of control | dose: 100.0 mg/kg/injection, schedule: Q01DX001 (sc), vehicle: steriod suspending solution 96 % of control | dose: 200.0 mg/kg/injection, schedule: Q01DX001 (sc), vehicle: steriod suspending solution 94 % of control | dose: 400.0 mg/kg/injection, schedule: Q01DX001 (sc), vehicle: steriod suspending solution 89 % of control

CCOC(=O)CC[P+](c1ccccc1)(c1ccccc1)c1ccccc1
inactive: [6] 103 % of control | dose: 75.0 mg/kg/injection, schedule: Q04DX003 (ip), vehicle: saline 106 % of control | [7] 109 % of control | dose: 150.0 mg/kg/injection, schedule: Q04DX003 (ip), vehicle: saline 105 % of control | [8] 101 % of control | dose: 300.0 mg/kg/injection, schedule: Q04DX003 (ip), vehicle: saline 107 % of control

CC(=O)/C(C1=NCCC1)=C(/C)O
inactive: [3] 92 % of control | [4] 98 % of control | [5] 98 % of control

Cc1c(C)c(C)c(C(=O)C[n+]2ccccc2)c(C)c1C
inactive: dose: 12.5 mg/kg/injection, schedule: Q04DX002 (ip), vehicle: saline 104 % of control | dose: 25.0 mg/kg/injection, schedule: Q04DX002 (ip), vehicle: saline 96 % of control | dose: 50.0 mg/kg/injection, schedule: Q04DX002 (ip), vehicle: saline 107 % of control

NNc1ncnc2c(C3OC(CO)C(O)C3O)[nH]nc12 (stereo unspecified)
inactive: dose: 12.5 mg/kg/injection, schedule: Q01DX009 (ip), vehicle: Klucel (hydroxypropylcellulose) (HPC) 111 % of control | dose: 20.0 mg/kg/injection, schedule: Q01DX009 (ip), vehicle: water 107 % of control | dose: 25.0 mg/kg/injection, schedule: Q01DX005 (ip), vehicle: Klucel (hydroxypropylcellulose) (HPC) 118 % of control | dose: 30.0 mg/kg/injection, schedule: Q01DX009 (ip), vehicle: water 107 % of control | dose: 45.0 mg/kg/injection, schedule: Q01DX009 (ip), vehicle: water 112 % of control | dose: 50.0 mg/kg/injection, schedule: Q01DX005 (ip), vehicle: Klucel (hydroxypropylcellulose) (HPC) 124 % of control | dose: 50.0 mg/kg/injection, schedule: Q01DX005 (ip), vehicle: saline 118 % of control | [9] 113 % of control | dose: 67.0 mg/kg/injection, schedule: Q01DX009 (ip), vehicle: water 122 % of control | [10] 122 % of control | [3] 118 % of control | dose: 100.0 mg/kg/injection, schedule: Q08DX002 (ip), vehicle: saline 102 % of control | dose: 150.0 mg/kg/injection, schedule: Q01DX009 (ip), vehicle: saline 120 % of control | dose: 200.0 mg/kg/injection, schedule: Q01DX005 (ip), vehicle: Klucel (hydroxypropylcellulose) (HPC) 106 % of control | dose: 200.0 mg/kg/injection, schedule: Q01DX005 (ip), vehicle: saline 106 % of control | [4] 122 % of control | dose: 200.0 mg/kg/injection, schedule: Q08DX002 (ip), vehicle: saline 122 % of control | dose: 800.0 mg/kg/injection, schedule: Q08DX002 (ip), vehicle: saline 104 % of control

COc1ccc(OC)c2cc3ccccc3cc12
inactive: dose: 100.0 mg/kg/injection, schedule: Q01DX001 (ip), vehicle: carboxymethylcellulose (CMC) 106 % of control | dose: 200.0 mg/kg/injection, schedule: Q01DX001 (ip), vehicle: carboxymethylcellulose (CMC) 104 % of control | dose: 400.0 mg/kg/injection, schedule: Q01DX001 (ip), vehicle: carboxymethylcellulose (CMC) 93 % of control

Nc1ccc([N+](=O)[O-])cc1[N+](=O)[O-]
inactive: dose: 25.0 mg/kg/injection, schedule: Q04DX003 (ip), vehicle: Klucel (hydroxypropylcellulose) (HPC) 103 % of control | [11] 98 % of control | [12] 95 % of control and 105 % of control

Cc1[nH]c2ccc([N+](=O)[O-])cc2c(=O)c1[N+](=O)[O-] (tested in a mixture with another compound)
inactive: [9] 94 % of control | [10] 87 % of control | [13] 105 % of control

COc1cc2c(cc1OC)C1CNC(=O)C1C(c1ccccc1)C2 (stereo unspecified)
inactive: [11] 103 % of control | [10] 100 % of control | [12] 98 % of control | [13] 102 % of control | dose: 200.0 mg/kg/injection, schedule: Q04DX003 (ip), vehicle: Klucel (hydroxypropylcellulose) (HPC) 95 % of control | [14] 94 % of control | dose: 400.0 mg/kg/injection, schedule: Q04DX003 (ip), vehicle: Klucel (hydroxypropylcellulose) (HPC) 98 % of control

COc1ccc([N+](=O)[O-])cc1NC(=O)Nc1ccc(SC)cc1
inactive: [9] 90 % of control | [10] 89 % of control | [13] 90 % of control and 92 % of control | [14] 98 % of control
